Data published in patent publication US8178506B2, “Oligomeric compounds and compositions for use in modulation of small non-coding RNAs” (Regulus Therapeutics Inc., priority 2003, dated 2012).
In the oligonucleotide strings, read from the 5' end, every base follows the letter of its sugar. An asterisk marks phosphorothioate; unmarked linkages are phosphodiester. Other units and linkages are bracketed, terminal groups are in braces. A string of capitals states the bases alone. e = 2'-O-(2-methoxyethyl) (MOE); [5mC] = 5-methylcytosine; d = 2'-deoxy (DNA)

What was measured:
[1] = test system: IL-12 mRNA; assay: IL-12 mRNA in LPS-activated primary murine macrophages; format: cell-based, mouse; conditions: for IL-12 mRNA expression, % UTC: LPS, average of 3 treatments; for IL-12 mRNA expression, −IFN % UTC: 300 nM oligomeric compound and LPS, no IFN-gamma pretreatment, single experiment; for IL-12 mRNA expression, −IFN % UTC / IL-12 mRNA expression, +IFN % UTC: normalized to LPS-treated cells without oligomeric compound; for IL-12 mRNA expression, +IFN % UTC: 300 nM oligomeric compound, stimulation with IFN-gamma and LPS, average of 2 experiments
[2] = test system: IGFBP-1; assay: IGFBP-1 mRNA expression in HepG2 cells; format: cell-based, human; conditions: for IGFBP1 mRNA: HepG2 cells, Experiment 1, basal (no insulin), four hours, UTC = 100; for IGFBP1 mRNA expression: Experiment 2, insulin treated: HepG2 cells transfected with oligomeric compound, 1 nM insulin for four hours, UTC + 1 nM insulin = 100

**Q.** How did the “IL-12 mRNA expression, % UTC” value ([1]; 75 nM, +IFN) turn out when “129690 (antisense TTAGAATACGTCGCGTTATG; sugars from the 5' end e5 d10 e5, all phosphorothioate, methylation of C not given here) [compound 129690]” was run?
**A.** 66 % UTC

**Q.** What about the “IL-12 mRNA expression, % UTC” value ([1]; 75 nM, −IFN) of the same substance?
**A.** 114 % UTC

**Q.** What about the “IL-12 mRNA expression, % UTC” value ([1]; 150 nM, +IFN) of the same substance?
**A.** 54 % UTC

**Q.** What about the “IL-12 mRNA expression, % UTC” value ([1]; 150 nM, −IFN) of the same substance?
**A.** 109 % UTC

**Q.** What about the “IL-12 mRNA expression, −IFN % UTC” value [1] of the same substance?
**A.** 73 % UTC

**Q.** What about the “IL-12 mRNA expression, +IFN % UTC” value [1] of the same substance?
**A.** 129 % UTC

**Q.** And the “IL-12 mRNA expression, % UTC” value ([1]; 300 nM, +IFN)?
**A.** 66 % UTC

**Q.** What about the “IL-12 mRNA expression, % UTC” value ([1]; 300 nM, −IFN) of the same substance?
**A.** 101 % UTC

**Q.** What about the “IL-12 mRNA expression, % UTC” value ([1]; 600 nM, +IFN) of the same substance?
**A.** 81 % UTC

**Q.** And the “IL-12 mRNA expression, % UTC” value ([1]; 600 nM, −IFN)?
**A.** 128 % UTC

**Q.** How did the “IGFBP1 mRNA” value [2] turn out when “327873 (antisense e[5mC]*eT*eA*e[5mC]*e[5mC]*eA*eT*eA*eG*eG*eG*eT*eA*eA*eA*eA*e[5mC]*e[5mC]*eA*e[5mC]*eT) [compound 327873]” was run?
**A.** 108

**Q.** How did the “IL-12 mRNA expression, −IFN % UTC” value [1] turn out when “327924 (antisense eG*e[5mC]*eA*eA*eG*e[5mC]*e[5mC]*e[5mC]*eA*eG*eA*e[5mC]*e[5mC]*eG*e[5mC]*eA*eA*eA*eA*eA*eG) [compound 327924]” was run?
**A.** 171 % UTC

**Q.** What about the “IL-12 mRNA expression, +IFN % UTC” value [1] of the same substance?
**A.** 88 % UTC

**Q.** What does the source list for “327935 (antisense e[5mC]*eT*eA*e[5mC]*e[5mC]*eT*eG*e[5mC]*eA*e[5mC]*eT*eA*eT*eA*eA*eG*e[5mC]*eA*e[5mC]*eT*eT*eT*eA) [compound 327935]”?
**A.** IL-12 mRNA expression, −IFN % UTC [1]: 254 % UTC; IL-12 mRNA expression, +IFN % UTC [1]: 24 % UTC

**Q.** With “327936 (antisense eA*e[5mC]*eA*eG*e[5mC]*eT*eG*eG*eT*eT*eG*eA*eA*eG*eG*eG*eG*eA*e[5mC]*e[5mC]*eA*eA) [compound 327936]” as the substance, how does the “IL-12 mRNA expression, −IFN % UTC” value [1] read?
**A.** 221 % UTC

**Q.** And the “IL-12 mRNA expression, +IFN % UTC” value [1]?
**A.** 55 % UTC

**Q.** Which “IL-12 mRNA expression, −IFN % UTC” value [1] does the source give for “327940 (antisense eG*eA*eA*e[5mC]*eA*eG*eG*eT*eA*eG*eT*e[5mC]*eT*eG*eA*eA*e[5mC]*eA*e[5mC]*eT*eG*eG*eG) [compound 327940]” here?
**A.** 228 % UTC

**Q.** What about the “IL-12 mRNA expression, +IFN % UTC” value [1] of the same substance?
**A.** 107 % UTC

**Q.** For “327945 (antisense e[5mC]*eT*eG*eT*eT*e[5mC]*e[5mC]*eT*eG*e[5mC]*eT*eG*eA*eA*e[5mC]*eT*eG*eA*eG*e[5mC]*e[5mC]*eA) [compound 327945]”, which “IL-12 mRNA expression, −IFN % UTC” value [1] is on record?
**A.** 202 % UTC

**Q.** What about the “IL-12 mRNA expression, +IFN % UTC” value [1] of the same substance?
**A.** 68 % UTC

**Q.** How did the “IGFBP1 mRNA expression” value [2] turn out when “327946 (antisense eA*eG*eG*e[5mC]*eG*eA*eA*eG*eG*eA*eT*eG*eA*e[5mC]*eA*eA*eA*eG*eG*eG*eA*eA) [compound 327946]” was run?
**A.** 138

**Q.** What about the “IGFBP1 mRNA” value [2] of the same substance?
**A.** 108

**Q.** “327949 (antisense e[5mC]*eA*e[5mC]*eA*eA*eA*eT*eT*e[5mC]*eG*eG*eA*eT*e[5mC]*eT*eA*e[5mC]*eA*eG*eG*eG*eT*eA) [compound 327949]” was tested. Which “IGFBP1 mRNA expression” value [2] did it give?
**A.** 172

**Q.** What about the “IGFBP1 mRNA” value [2] of the same substance?
**A.** 112

**Q.** Which “IGFBP1 mRNA expression” value [2] does the source give for “327950 (antisense eT*e[5mC]*eA*eG*eT*eT*eT*eT*eG*e[5mC]*eA*eT*eA*eG*eA*eT*eT*eT*eG*e[5mC]*eA*e[5mC]*eA) [compound 327950]” here?
**A.** 124

**Q.** What about the “IGFBP1 mRNA” value [2] of the same substance?
**A.** 109

**Q.** Which “IGFBP1 mRNA expression” value [2] does the source give for “327952 (antisense e[5mC]*eT*eA*e[5mC]*eG*e[5mC]*eG*eT*eA*eT*eT*e[5mC]*eT*eT*eA*eA*eG*e[5mC]*eA*eA*eT*eA) [compound 327952]” here?
**A.** 103

**Q.** And the “IGFBP1 mRNA” value [2]?
**A.** 123

**Q.** What does the source list for “327957 (antisense e[5mC]*eA*e[5mC]*eA*eA*eG*eT*eT*e[5mC]*eG*eG*eA*eT*e[5mC]*eT*eA*e[5mC]*eG*eG*eG*eT*eT) [compound 327957]”?
**A.** IGFBP1 mRNA expression [2]: 184; IGFBP1 mRNA [2]: 143

**Q.** With “327958 (antisense e[5mC]*e[5mC]*eG*eG*e[5mC]*eT*eG*e[5mC]*eA*eA*e[5mC]*eA*e[5mC]*eA*eA*eG*eA*e[5mC]*eA*e[5mC]*eG*eA) [compound 327958]” as the substance, how does the “IL-12 mRNA expression, −IFN % UTC” value [1] read?
**A.** 188 % UTC

**Q.** What about the “IL-12 mRNA expression, +IFN % UTC” value [1] of the same substance?
**A.** 60 % UTC

**Q.** What about the “IGFBP1 mRNA expression” value [2] of the same substance?
**A.** 149

**Q.** What about the “IGFBP1 mRNA” value [2] of the same substance?
**A.** 119

**Q.** Which “IL-12 mRNA expression, −IFN % UTC” value [1] does the source give for “327959 (antisense e[5mC]*eA*eG*e[5mC]*e[5mC]*eG*e[5mC]*eT*eG*eT*e[5mC]*eA*e[5mC]*eA*e[5mC]*eG*e[5mC]*eA*e[5mC]*eA*eG) [compound 327959]” here?
**A.** 183 % UTC

**Q.** And the “IL-12 mRNA expression, +IFN % UTC” value [1]?
**A.** 20 % UTC

**Q.** What about the “IGFBP1 mRNA expression” value [2] of the same substance?
**A.** 141

**Q.** What about the “IGFBP1 mRNA” value [2] of the same substance?
**A.** 124

**Q.** Which results are given for “327961 (antisense eG*eG*eG*eG*eT*eA*eT*eT*eT*eG*eA*e[5mC]*eA*eA*eA*e[5mC]*eT*eG*eA*e[5mC]*eA) [compound 327961]”?
**A.** IL-12 mRNA expression, −IFN % UTC [1]: 203 % UTC; IL-12 mRNA expression, +IFN % UTC [1]: 10 % UTC; IGFBP1 mRNA expression [2]: 160; IGFBP1 mRNA [2]: 150

**Q.** “327963 (antisense eA*eA*e[5mC]*e[5mC]*eT*eA*eT*e[5mC]*e[5mC]*eT*eG*eA*eA*eT*eT*eA*e[5mC]*eT*eT*eG*eA*eA) [compound 327963]” was tested. Which “IL-12 mRNA expression, −IFN % UTC” value [1] did it give?
**A.** 224 % UTC

**Q.** What about the “IL-12 mRNA expression, +IFN % UTC” value [1] of the same substance?
**A.** 23 % UTC

**Q.** What about the “IGFBP1 mRNA expression” value [2] of the same substance?
**A.** 111

**Q.** And the “IGFBP1 mRNA” value [2]?
**A.** 108

**Q.** “327964 (antisense e[5mC]*e[5mC]*eA*eA*eG*eT*eT*e[5mC]*eT*eG*eT*e[5mC]*eA*eT*eG*e[5mC]*eA*e[5mC]*eT*eG*eA) [compound 327964]” was tested. Which “IGFBP1 mRNA expression” value [2] did it give?
**A.** 121

**Q.** And the “IGFBP1 mRNA” value [2]?
**A.** 100

**Q.** Which “IGFBP1 mRNA expression” value [2] does the source give for “327965 (antisense eA*eT*e[5mC]*eA*e[5mC]*eA*eT*eA*eG*eG*eA*eA*eT*eA*eA*eA*eA*eA*eG*e[5mC]*e[5mC]*eA*eT*eA) [compound 327965]” here?
**A.** 105

**Q.** What about the “IGFBP1 mRNA” value [2] of the same substance?
**A.** 106

**Q.** With “327971 (antisense eG*eG*eA*eA*eA*eT*e[5mC]*e[5mC]*e[5mC]*eT*eG*eG*e[5mC]*eA*eA*eT*eG*eT*eG*eA*eT) [compound 327971]” as the substance, how does the “IL-12 mRNA expression, −IFN % UTC” value [1] read?
**A.** 146 % UTC

**Q.** What about the “IL-12 mRNA expression, +IFN % UTC” value [1] of the same substance?
**A.** 17 % UTC
